Measured values as given in patent US10155768B2, “Fused pyrimidine compound or salt thereof” (TAIHO PHARMACEUTICAL CO., LTD., priority 2016, dated 2018).
Read-outs that look alike come from different tables or passages of the source.

What was measured:
[1] = molecular target: recombinant human RET protein (Homo sapiens (Human), UniProt P07949); experiment: Measurement of inhibitory activity against RET (in vitro); format: biochemical; conditions: ATP 10 μM
[2] = test system: TT cells (a human thyroid cancer cell line with RET activating mutation (C634W)); experiment: Cell growth inhibitory effect (1), TT cells; format: cell-based; conditions: 168 h, read-out: TT Cell GI50 (nM)
Method: An in vitro cytotoxicity test was performed on TT cells (a human thyroid cancer cell line with RET activating mutation (C634W)).
(§1) After shaking, each culture was allowed to stand at room temperature for 15 minutes, and the chemiluminescence was measured with a luminometer to use it as an index of the number of viable cells.
C: The absorbance of the well to which a test compound was not added. Day 1: The day on which a test compound was added. Day 8: The day on which evaluation was performed.

[3] = test system: LC-2/ad cells (a human lung adenocarcinoma cell line with CCDC6-RET fusion gene); experiment: Cell growth inhibitory effect (2), LC-2/ad cells; format: cell-based; conditions: 168 h, read-out: LC-2/ad Cell GI50
Method: An in vitro cytotoxicity test was performed on LC-2/ad cells (a human lung adenocarcinoma cell line with CCDC6-RET fusion gene).
as §1

[4] = test system: TT cells (human thyroid cancer cell line with RET activating mutation); experiment: In vivo antitumor effect, mice subcutaneously implanted with TT cells; set-up: species or system BALB/cA Jcl-nu/nu male mice; conditions: 100 mg/kg/day oral, 14 days
Method: Human thyroid cancer cell lines (TT) were subcutaneously implanted into the right frank of 6- to 7-week-old BALB/cA Jcl-nu/nu male mice. After about 2 to 3 weeks from the cell implantation, the length (nm) and the width (mm) of tumors found in mouse bodies were measured. […] The day on which the mice were divided into groups was determined to be the “grouping day” (day 0 or 1).
A control group was administered a solvent (0.5% HPMC/0.1N HCl).
To determine the index of the antitumor effect, TV of each drug-administrated group was measured on day 15, and the tumor volume on day 15 relative to the tumor volume on the grouping day (day 0 or 1) (relative tumor volume: RTV) and T/C (%) were calculated from the following equations, and the antitumor effect was evaluated. […] TV(mm^3)=(length×width^2)/2 RTV=(TV on day 15)/(TV on day 0 or day 1) T/C(%)=(the mean RTV of a test compound treatment group)/(the mean RTV of the control group)×100

[5] = mouse, microsomes, 0.5 h
Method: (§2) Solutions of the test compounds in DMSO/acetonitrile (the final concentration of each test compound was 1 μM, the final concentration of DMSO was 0.01%, and the final concentration of acetonitrile was 1%) were individually added to a liver microsome mixture solution (mouse liver microsome with a final concentration of 0.25 mg/mL, a potassium phosphate buffer with a final concentration of 100 mM, and magnesium chloride with a final concentration of 3 mM), and each mixture was pre-incubated at 37° C. for 5 minutes. […] After incubation at 37° C. for 30 minutes, a double amount of ethanol was added thereto to terminate the reaction, thereby obtaining post-reaction samples. A double amount of ethanol was added to each of the remaining mixture solutions, and a NADPH-generating system was further added thereto, thereby obtaining pre-reaction samples. The pre-reaction samples and post-reaction samples were centrifuged at 2000×g, and their supernatant was filtered through a glass filter. Each filtrate was then introduced into LC-MS/MS, and MS/MS peaks of the test compounds were detected. From the ratio of the post-reaction MS/MS peak to the pre-reaction MS/MS peak of the test compounds, the percentage of the remaining test compounds (remaining %) was calculated.

[6] = Evaluation of stability in liver microsome; conditions: mouse liver microsome 0.25 mg/mL, 1 μM test compound, 37° C. for 30 minutes
Method: as §2

Sequence of recombinant human RET protein (P07949 29-1114): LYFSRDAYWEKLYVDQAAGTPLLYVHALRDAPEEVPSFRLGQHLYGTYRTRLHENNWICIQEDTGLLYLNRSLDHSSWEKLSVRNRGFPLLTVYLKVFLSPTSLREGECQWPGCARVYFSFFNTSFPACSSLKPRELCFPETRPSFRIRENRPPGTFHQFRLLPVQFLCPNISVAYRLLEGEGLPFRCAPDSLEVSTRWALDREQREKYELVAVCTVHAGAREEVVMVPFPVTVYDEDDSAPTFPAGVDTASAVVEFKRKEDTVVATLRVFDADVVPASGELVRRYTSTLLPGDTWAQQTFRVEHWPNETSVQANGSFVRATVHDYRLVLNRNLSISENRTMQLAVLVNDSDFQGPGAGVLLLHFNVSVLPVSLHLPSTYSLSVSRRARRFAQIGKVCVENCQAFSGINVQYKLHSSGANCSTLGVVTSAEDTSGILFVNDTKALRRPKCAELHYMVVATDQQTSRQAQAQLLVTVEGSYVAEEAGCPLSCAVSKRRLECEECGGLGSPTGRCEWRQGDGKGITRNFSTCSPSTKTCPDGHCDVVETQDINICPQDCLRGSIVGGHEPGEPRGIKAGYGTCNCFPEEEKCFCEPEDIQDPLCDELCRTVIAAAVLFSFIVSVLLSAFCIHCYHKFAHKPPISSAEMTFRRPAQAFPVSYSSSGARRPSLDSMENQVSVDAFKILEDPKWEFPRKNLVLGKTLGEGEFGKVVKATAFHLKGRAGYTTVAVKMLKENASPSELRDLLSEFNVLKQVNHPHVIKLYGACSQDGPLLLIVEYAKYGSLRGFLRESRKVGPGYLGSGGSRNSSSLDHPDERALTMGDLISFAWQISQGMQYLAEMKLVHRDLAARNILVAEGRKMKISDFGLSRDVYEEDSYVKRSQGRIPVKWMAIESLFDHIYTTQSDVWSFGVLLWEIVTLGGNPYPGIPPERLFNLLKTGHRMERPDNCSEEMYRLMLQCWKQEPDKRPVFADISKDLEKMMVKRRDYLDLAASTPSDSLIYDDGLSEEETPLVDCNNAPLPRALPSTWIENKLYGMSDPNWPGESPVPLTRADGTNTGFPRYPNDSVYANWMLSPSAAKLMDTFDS

Row | SMILES | Remaining (%) [6] [%] | other results
1 | COCc1ccc(NC(=O)c2nn(-c3ccccc3)c3ncnc(N)c23)cc1 [Comound 5 of Comparative Examples, 4-amino-N-(4-(methoxymethyl)phenyl)-1-phenyl-1H-pyrazolo[3,4-d]pyrimidine-3-carboxamide] | – | IC50 [1]: > 5000 nM
2 | COCc1ccc(NC(=O)c2c(C#CCN3CCOCC3)n(C3(C)CC3)c3ncnc(N)c23)cc1 [Example 85, 4-amino-N-[4-(methoxymethyl)phenyl]-7-(1-methylcyclopropyl)-6-(3-morpholinoprop-1-yn-1-yl)-7H-pyrrolo[2,3-d]pyrimidine-5-carboxamide] | – | GI50 [2]: 10 nM; GI50 [3]: 17.7 nM; T/C (%) ([4]; day 15): 23%; TV (mm^3) Day 15 Mean ± SE ([4]; day 15): 139.42 ± 10.17 mm^3; RTV Day 15 Mean ± SE ([4]; day 15 relative to day 0): 0.87 ± 0.13; Remaining (%) [5]: 79%
3 | C/C=C/c1ccc(NC(=O)c2cn(C3(C)CC3)c3ncnc(N)c23)cc1 [Example 107, (E)-4-amino-7-(1-methylcyclopropyl)-N-(4-(prop-1-en-1-yl)phenyl)-7H-pyrrolo[2,3-d]pyrimidine-5-carboxamide] | – | Remaining (%) [5]: 63%
4 | C#Cc1ccc(NC(=O)c2cn(C3(C)CC3)c3ncnc(N)c23)cc1 [Example 108, 4-amino-N-(4-ethynylphenyl)-7-(1-methylcyclopropyl)-7H-pyrrolo[2,3-d]pyrimidine-5-carboxamide] | – | Remaining (%) [5]: 60%
5 | C/C=C/c1ccc(NC(=O)c2c(OCC)n(C3(C)CC3)c3ncnc(N)c23)cc1 [Example 117, (E)-4-amino-6-ethoxy-7-(1-methylcyclopropyl)-N-(4-(prop-1-en-1-yl)phenyl)-7H-pyrrolo[2,3-d]pyrimidine-5-carboxamide] | – | Remaining (%) ([5]; 1 μM): 53%
6 | COCc1ccc(NC(=O)c2c(C#Cc3cnn(C)c3C)n(C3(C)CC3)c3ncnc(N)c23)cc1 [Example 182, 4-amino-6-((1,5-dimethyl-1H-pyrazol-4-yl)ethynyl)-N-(4-(methoxymethyl)phenyl)-7-(1-methylcyclopropyl)-7H-pyrrolo[2,3-d]pyrimidine-5-carboxamide] | 61 | –
7 | COCc1ccc(NC(=O)c2c(C#CC3CCN(C)CC3)n(C3(C)CC3)c3ncnc(N)c23)cc1 [Example 183, 4-amino-N-(4-(methoxymethyl)phenyl)-7-(1-methylcyclopropyl)-6-((1-methylpiperidin-4-yl)ethynyl)-7H-pyrrolo[2,3-d]pyrimidine-5-carboxamide] | 77 | –
8 | COCc1ccc(NC(=O)c2c(C#Cc3c(C)noc3C)n(C3(C)CC3)c3ncnc(N)c23)cc1 [Example 184, 4-amino-6-((3,5-dimethylisoxazol-4-yl)ethynyl)-N-(4-(methoxymethyl)phenyl)-7-(1-methylcyclopropyl)-7H-pyrrolo[2,3-d]pyrimidine-5-carboxamide] | 58 | –
9 | COCc1ccc(NC(=O)c2c(C#CC3(O)CCOCC3)n(C3(C)CC3)c3ncnc(N)c23)cc1 [Example 185, 4-amino-6-((4-hydroxytetrahydro-2H-pyran4-yl)ethynyl)-N-(4-(methoxymethyl)phenyl)-7-(1-methylcyclopropyl)-7H-pyrrolo[2,3-d]pyrimidine-5-carboxamide] | 80 | –
10 | COCc1ccc(NC(=O)c2c(C#CCCN3CCOCC3)n(C3(C)CC3)c3ncnc(N)c23)cc1 [Example 187, 4-amino-N-(4-(methoxymethyl)phenyl)-7-(1-methylcyclopropyl)-6-(4-morpholinobut-1-yn-1-yl)-7H-pyrrolo[2,3-d]pyrimidine-5-carboxamide] | 68 | –
11 | COCc1ccc(NC(=O)c2c(C#CCC(C)O)n(C3(C)CC3)c3ncnc(N)c23)cc1 (stereo not shown) [Example 188, 4-amino-6-(4-hydroxypent-1-yn-1-yl)-N-(4-(methoxymethyl)phenyl)-7-(1-methylcyclopropyl)-7H-pyrrolo[2,3-d]pyrimidine-5-carboxamide] | 68 | –
12 | COCc1ccc(NC(=O)c2c(-c3ccc(F)nc3)n(C3(C)CC3)c3ncnc(N)c23)cc1 [Example 190, 4-amino-6-(6-fluoropyridin-3-yl)-N-(4-(methoxymethyl)phenyl)-7-(1-methylcyclopropyl)-7H-pyrrolo[2,3-d]pyrimidine-5-carboxamide] | 58 | –
13 | COCc1ccc(NC(=O)c2c(C#Cc3cnc[nH]3)n(C3(C)CC3)c3ncnc(N)c23)cc1 [Example 191, 6-((1H-imidazol-5-yl)ethynyl)-4-amino-N-(4-(methoxymethyl)phenyl)-7-(1-methylcyclopropyl)-7H-pyrrolo[2,3-d]pyrimidine-5-carboxamide] | 53 | –
14 | COCc1ccc(NC(=O)c2c(C#Cc3ccc(OC)nc3)n(C3(C)CC3)c3ncnc(N)c23)cc1 [Example 192, 4-amino-N-(4-(methoxymethyl)phenyl)-6-((6-methoxypyridin-3-yl)ethynyl)-7-(1-methylcyclopropyl)-7H-pyrrolo[2,3-d]pyrimidine-5-carboxamide] | 79 | –
15 | COCc1ccc(NC(=O)c2c(C#Cc3cncs3)n(C3(C)CC3)c3ncnc(N)c23)cc1 [Example 193, 4-amino-N-[4-(methoxymethyl)phenyl]-7-(1-methylcyclopropyl)-6-(thiazol-5-ylethynyl)-7H-pyrrolo[2,3-d]pyrimidine-5-carboxamide] | 51 | –
16 | COCc1ccc(NC(=O)c2c(-c3cncnc3)n(C3(C)CC3)c3ncnc(N)c23)cc1 [Example 194, 4-amino-N-(4-(methoxymethyl)phenyl)-7-(1-methylcyclopropyl)-6-(pyrimidin-5-yl)-7H-pyrrolo[2,3-d]pyrimidine-5-carboxamide] | 67 | –
17 | COCc1ccc(NC(=O)c2c(C#Cc3cncc(C#N)c3)n(C3(C)CC3)c3ncnc(N)c23)cc1 [Example 195, 4-amino-6-((5-cyanopyridin-3-yl)ethynyl)-N-(4-(methoxymethyl)phenyl)-7-(1-methylcyclopropyl)-7H-pyrrolo[2,3-d]pyrimidine-5-carboxamide] | 70 | –
18 | COCc1ccc(NC(=O)c2c(C#Cc3cncnc3)n(C3(C)CC3)c3ncnc(N)c23)cc1 [Example 196, 4-amino-N-(4-(methoxymethyl)phenyl)-7-(1-methylcyclopropyl)-6-(pyrimidin-5-ylethynyl)-7H-pyrrolo[2,3-d]pyrimidine-5-carboxamide] | 53 | –
19 | COCCN(C)CC#Cc1c(C(=O)Nc2ccc(COC)cc2)c2c(N)ncnc2n1C1(C)CC1 [Example 197, 4-amino-6-(3-((2-methoxyethyl)(methyl)amino)prob-1-yn-1-yl)-N-(4-(methoxymethyl)phenyl)-7-(1-methylcyclopropyl)-7H-pyrrolo[2,3-d]pyrimidine-5-carboxamide] | 52 | –
20 | COCc1ccc(NC(=O)c2c(C#CCN(C)C)n(C3(C)CC3)c3ncnc(N)c23)cc1 [Example 198, 4-amino-6-(3-(dimethylamino)prop-1-yn-1-yl)-N-(4-(methoxymethyl)phenyl)-7-(1-methylcyclopropyl)-7H-pyrrolo[2,3-d]pyrimidine-5-carboxamide] | 57 | –
21 | COCc1ccc(NC(=O)c2c(C#CCC3CCCCC3)n(C3(C)CC3)c3ncnc(N)c23)cc1 [Example 199, 4-amino-6-(3-cyclohexylprop-1-yn-1-yl)-N-(4-(methoxymethyl)phenyl)-7-(1-methylcyclopropyl)-7H-pyrrolo[2,3-d]pyrimidine-5-carboxamide] | 80 | –
22 | COCc1ccc(NC(=O)c2c(C3=CCOCC3)n(C3(C)CC3)c3ncnc(N)c23)cc1 [Example 203, 4-amino-6-(3,6-dihydro-2H-pyran-4-yl)-N-(4-(methoxymethyl)phenyl)-7-(1-methylcyclopropyl)-7H-pyrrolo[2,3-d]pyrimidine-5-carboxamide] | 68 | –
23 | COCc1ccc(NC(=O)c2c(C(C)O)n(C3(C)CC3)c3ncnc(N)c23)cc1 (stereo not shown) [Example 204, 4-amino-6-(1-hydroxyethyl)-N-(4-(methoxymethyl)phenyl)-7-(1-methylcyclopropyl)-7H-pyrrolo[2,3-d]pyrimidine-5-carboxamide] | 83 | –
24 | COCc1ccc(NC(=O)c2c(C#CC3CCOCC3)n(C3(C)CC3)c3ncnc(N)c23)cc1F [Example 205, 4-amino-N-(3-fluoro-4-(methoxymethyl)phenyl)-7-(1-methylcyclopropyl)-6-((tetrahydro-2H-pyran-4-yl)ethynyl)-7H-pyrrolo[2,3-d]pyrimidine-5-carboxamide] | 58 | –
25 | COCc1ccc(NC(=O)c2c(C#CCN3CCOCC3)n(C3(C)CC3)c3ncnc(N)c23)cc1F [Example 206, 4-amino-N-(3-fluoro-4-(methoxymethyl)phenyl)-7-(1-methylcyclopropyl)-6-(3-morpholinoprop-1-yn-1-yl)-7H-pyrrolo[2,3-d]pyrimidine-5-carboxamide] | 77 | –
26 | CCc1c(C(=O)Nc2ccc(COC)cc2)c2c(N)ncnc2n1C1(C)CC1 [Example 207, 4-amino-6-ethyl-N-(4-(methoxymethyl)phenyl)-7-(1-methylcyclopropyl)-7H-pyrrolo[2,3-d]pyrimidine-5-carboxamide] | 72 | –
